From ChEMBL document CHEMBL1127926, “Preparation and antitumor activity of [N-alkyl-Ala2]RA-VII, antitumor cyclic hexapeptide” (Bioorg Med Chem Lett, 1994) come the findings set out here.

Values after ≈ are worked out from the molar mass of the structure shown.

Experiment [1] relates to Mus musculus. Kind of experiment: Antitumor activity against P388 leukemia cells was determined in mice at a dose 0.4 mg/kg administered i.p. on days 1-5. In kind it is functional. The settings on record: route intraperitoneal.
Experiment [2] concerns Mus musculus. Kind of experiment: Antitumor activity against P388 leukemia cells was determined in mice at a dose 6.25 mg/kg administered i.p. on days 1-5; Toxic. In kind it is functional, organism-based. Also on record: dose 6.25 mg/kg.
In experiment [3] the test system is Mus musculus. Kind of experiment: Antitumor activity against P388 leukemia cells was determined in mice at a dose 3.13 mg/kg administered i.p. on days 1-5. In kind it is functional. The settings on record: route intraperitoneal.
Experiment [4] concerns Mus musculus. Kind of experiment: Antitumor activity against P388 leukemia cells was determined in mice at a dose 1.6 mg/kg administered i.p. on days 1-5. In kind it is functional. The settings on record: route intraperitoneal.
The test system of experiment [5] is Mus musculus. Kind of experiment: Antitumor activity against P388 leukemia cells was determined in mice at a dose 0.8 mg/kg administered i.p. on days 1-5. In kind it is functional. The following applies: route intraperitoneal.
In another experiment the test system is P388. Kind of experiment: Cytotoxicity in murine lymphocytic leukemia (P388) cells. In kind it is functional, cell-based. The following applies: Mus musculus.
The subject of another experiment is KB. Kind of experiment: Cytotoxicity in human epidermoid carcinoma of the nasopharynx(KB) cells. In kind it is functional, cell-based.
Experiment [6] deals with Mus musculus. Kind of experiment: Antitumor activity against P388 leukemia cells was determined in mice at a dose 6.25 mg/kg administered i.p. on days 1-5. The following applies: route intraperitoneal. In kind it is functional.
Experiment [7] concerns Mus musculus. Kind of experiment: Antitumor activity against P388 leukemia cells was determined in mice at a dose 25.0 mg/kg administered i.p. on days 1-5. In kind it is functional. The following applies: route intraperitoneal.
Experiment [8] deals with Mus musculus. Kind of experiment: Antitumor activity against P388 leukemia cells was determined in mice at a dose 12.5 mg/kg administered i.p. on days 1-5. The settings on record: route intraperitoneal. In kind it is functional.

With `COc1ccc(C[C@H]2C(=O)N[C@@H](C)C(=O)N(C)[C@H]3Cc4ccc(cc4)Oc4cc(ccc4OC)C[C@@H](C(=O)N[C@H](C)C(=O)N[C@@H](C)C(=O)N2C)N(C)C3=O)cc1`, the T/C with Mus musculus [1] was found to be 144%; in the experiment with Mus musculus [3] it was 163%; in the experiment on Mus musculus [4] it was 152%; in the experiment on Mus musculus [5] it was 144%. In the experiment with Mus musculus [2], the Activity result was “Toxic”. In addition, the IC50 turned out to be 1.3 ng/mL (≈ 0.00169 µM) in the experiment on P388 and 0.0023 µg/mL (≈ 0.00298 µM) in the experiment with KB.
With `C/C=C/CN1C(=O)[C@@H](C)NC(=O)[C@@H]2Cc3ccc(OC)c(c3)Oc3ccc(cc3)C[C@@H](C(=O)N2C)N(C)C(=O)[C@H](C)NC(=O)[C@H](Cc2ccc(OC)cc2)N(C)C(=O)[C@@H]1C`, the T/C is on record as 112% in the experiment with Mus musculus [1], 127% in the experiment with Mus musculus [4] and 155% in the experiment with Mus musculus [6]. Further, the 50% inhibitory concentration (IC50) with P388 was determined as 7.6 ng/mL (≈ 0.00921 µM); in the experiment on KB, 0.018 µg/mL (≈ 0.0218 µM).
For `CC/C=C/CN1C(=O)[C@@H](C)NC(=O)[C@@H]2Cc3ccc(OC)c(c3)Oc3ccc(cc3)C[C@@H](C(=O)N2C)N(C)C(=O)[C@H](C)NC(=O)[C@H](Cc2ccc(OC)cc2)N(C)C(=O)[C@@H]1C` the same measures were 113%, 125%, 155%, 10 ng/mL (≈ 0.0119 µM) and 0.022 µg/mL (≈ 0.0262 µM).
`C=CCN1C(=O)[C@@H](C)NC(=O)[C@@H]2Cc3ccc(OC)c(c3)Oc3ccc(cc3)C[C@@H](C(=O)N2C)N(C)C(=O)[C@H](C)NC(=O)[C@H](Cc2ccc(OC)cc2)N(C)C(=O)[C@@H]1C`: the half-inhibitory concentration (IC50) is 15 ng/mL (≈ 0.0185 µM) with P388 and 0.013 µg/mL (≈ 0.016 µM) with KB.
For `COc1ccc(C[C@H]2C(=O)N[C@@H](C)C(=O)N(C)[C@H]3Cc4ccc(cc4)Oc4cc(ccc4OC)C[C@@H](C(=O)N[C@H](C)C(=O)N(C)[C@@H](C)C(=O)N2C)N(C)C3=O)cc1` the same measures were 1.2 ng/mL (≈ 0.00153 µM) and 0.0077 µg/mL (≈ 0.00981 µM).
Taken in the same sequence, the figures for `C=C(C)CN1C(=O)[C@@H](C)NC(=O)[C@@H]2Cc3ccc(OC)c(c3)Oc3ccc(cc3)C[C@@H](C(=O)N2C)N(C)C(=O)[C@H](C)NC(=O)[C@H](Cc2ccc(OC)cc2)N(C)C(=O)[C@@H]1C` were 9 ng/mL (≈ 0.0109 µM) and 0.027 µg/mL (≈ 0.0327 µM).
Regarding `COc1ccc(C[C@H]2C(=O)N[C@@H](C)C(=O)N(C)[C@H]3Cc4ccc(cc4)Oc4cc(ccc4OC)C[C@@H](C(=O)N[C@H](C)C(=O)N(C/C=C(\C)CCC=C(C)C)[C@@H](C)C(=O)N2C)N(C)C3=O)cc1`, the T/C in the experiment with Mus musculus [7] is on record as 164%; in the experiment with Mus musculus [1] it was 119%; in the experiment with Mus musculus [4], 131%; in the experiment on Mus musculus [6], 148%. For the same compound, the IC50 came to 44 ng/mL (≈ 0.0485 µM) in the experiment with P388 and 0.062 µg/mL (≈ 0.0683 µM) with KB.
Consider `COc1ccc(C[C@H]2C(=O)N[C@@H](C)C(=O)N(C)[C@H]3Cc4ccc(cc4)Oc4cc(ccc4OC)C[C@@H](C(=O)N[C@H](C)C(=O)N(CC=C(C)C)[C@@H](C)C(=O)N2C)N(C)C3=O)cc1`, for which the T/C in the experiment on Mus musculus [1] worked out at 123%; in the experiment with Mus musculus [8], 174%; with Mus musculus [4], 132%; in the experiment on Mus musculus [6] it was 160%. For the same compound, the IC50 is 5.8 ng/mL (≈ 0.00691 µM) with P388 and 0.0064 µg/mL (≈ 0.00763 µM) in the experiment with KB.
Consider `CCCN1C(=O)[C@@H](C)NC(=O)[C@@H]2Cc3ccc(OC)c(c3)Oc3ccc(cc3)C[C@@H](C(=O)N2C)N(C)C(=O)[C@H](C)NC(=O)[C@H](Cc2ccc(OC)cc2)N(C)C(=O)[C@@H]1C`, for which the half-maximal inhibitory concentration (IC50) in the experiment on P388 was found to be 3.2 ng/mL (≈ 0.00394 µM); with KB, 0.0097 µg/mL (≈ 0.0119 µM).
Regarding `COc1ccc(C[C@H]2C(=O)N[C@@H](C)C(=O)N(C)[C@H]3Cc4ccc(cc4)Oc4cc(ccc4OC)C[C@@H](C(=O)N[C@H](C)C(=O)N(C/C=C/c4ccccc4)[C@@H](C)C(=O)N2C)N(C)C3=O)cc1`, the results for the IC50 with P388 and with KB were 9.4 ng/mL (≈ 0.0106 µM) and 0.03 µg/mL (≈ 0.0338 µM), respectively.
Taken in the same sequence, the figures for `CCCCCN1C(=O)[C@@H](C)NC(=O)[C@@H]2Cc3ccc(OC)c(c3)Oc3ccc(cc3)C[C@@H](C(=O)N2C)N(C)C(=O)[C@H](C)NC(=O)[C@H](Cc2ccc(OC)cc2)N(C)C(=O)[C@@H]1C` were 18 ng/mL (≈ 0.0214 µM) and 0.063 µg/mL (≈ 0.0749 µM).
With `CCCCN1C(=O)[C@@H](C)NC(=O)[C@@H]2Cc3ccc(OC)c(c3)Oc3ccc(cc3)C[C@@H](C(=O)N2C)N(C)C(=O)[C@H](C)NC(=O)[C@H](Cc2ccc(OC)cc2)N(C)C(=O)[C@@H]1C`, the IC50 in the experiment with P388 came to 10 ng/mL (≈ 0.0121 µM); in the experiment on KB, 0.024 µg/mL (≈ 0.029 µM).
Taken in the same sequence, the figures for `CCN1C(=O)[C@@H](C)NC(=O)[C@@H]2Cc3ccc(OC)c(c3)Oc3ccc(cc3)C[C@@H](C(=O)N2C)N(C)C(=O)[C@H](C)NC(=O)[C@H](Cc2ccc(OC)cc2)N(C)C(=O)[C@@H]1C` were 35 ng/mL (≈ 0.0438 µM) and 0.035 µg/mL (≈ 0.0438 µM).

As usually defined, the T/C is the result in the treated group divided by that in the control group, in per cent. Broadly, the IC50 is the concentration that inhibits the measured activity by half. The low end stands for higher potency, the high end for lower potency.
